Data taken from patent publication US20090136448A1, “Antiviral 2-Carboxy-Thiophene Compounds” (priority 2005, published 2009).

Assays:
[1] = system: HCV replication, genotype 1b (Huh-7 HCV replicon cell, sub-line 5-15); test: Replicon ELISA cell based assay, genotype 1b; settings: Hepatitis C virus, Huh-7 HCV replicon cells, genotype 1b (sub-line 5-15), 72 hours, mean, assayed at least twice
Procedure: (§1) Replicon ELISA Cell Based Assay
(§2) 100 μL of medium containing 10% FCS were added to each well of clear, flat-bottomed 96 well microplates, excepting wells in the top row. Test compound was diluted in assay medium to twice the final required starting concentration from a 40 mM stock solution in DMSO. 200 μL of the starting dilution were introduced into two wells each in the top row and doubling dilutions made down the plate by the sequential transfer of 100 μL aliquots with thorough mixing in the wells; the final 100 μL were discarded. The two bottom rows were not used for compound dilutions. Huh-7 HCV replicon cell monolayers nearing confluency were stripped from growth flasks with versene-trypsin solution and the cells were resuspended in assay medium at either 2×10^5 cells/mL (sub-line 5-15; genotype 1b; Lohmann, V., Korner, F., Koch, J-O., Herian, U., Thielmann, L. and Bartenschlager, R., Science, 1999, 285, 110-113) or at 3×10^5 cells/mL (genotype 1a; Gu, B., Gates, A. T., Isken, O., Behrens, S. E. and Sarisky, R. T., J. Virol., 2003, 77, 5352-5359). 100 μL of cell suspension were added to all wells and the plates incubated at 37° C. for 72 hours in a 5% CO2 atmosphere.
(§3) Following incubation, the assay medium was aspirated from the plates. The cell sheets were washed by gentle immersion in phosphate buffered saline (PBS), which was then aspirated off, and fixed with acetone:methanol (1:1) for 5 minutes. Following a further wash with PBS, 100 μL of ELISA diluent (PBS+0.05% v/v Tween 20+2% w/v skimmed milk powder) were added to all wells and the plates incubated at 37° C. for 30 minutes on an orbital platform. The diluent was removed and each well then received 50 μL of a 1/200 dilution of anti-HCV specific, murine, monoclonal antibody (either Virostat #1872 or #1877), except for wells in one of the compound-free control rows which received diluent alone to act as negative controls. The plates were incubated at 37° C. for 2 hours and washed 3 times with PBS/0.05% Tween 20, then 50 μL of horseradish peroxidase conjugated, anti-mouse, rabbit polyclonal serum (Dako #P0260), diluted 1/1000, were added to all wells. The plates were incubated for a further hour, the antibody removed and the cell sheets washed 5 times with PBS/Tween and blotted dry. The assay was developed by the addition of 50 μL of ortho-phenylenediamine/peroxidase substrate in urea/citrate buffer (SigmaFast, Sigma #P-9187) to each well, and colour allowed to develop for up to 15 minutes. The reaction was stopped by the addition of 25 μL per well of 2 M sulphuric acid and the plates were read at 490 nm on a Fluostar Optima spectrophotometer.
(§4) The substrate solution was removed and the plates were washed in tap water, blotted dry and the cells stained with 5% carbol fuchsin in water for 30 minutes. The stain was discarded and the cell sheets washed, dried and examined microscopically to assess cytotoxicity.
(§5) The absorbance values from all compound-free wells that had received both primary and secondary antibodies were averaged to obtain a positive control value. The mean absorbance value from the compound-free wells that had not received the primary antibody was used to provide the negative (background) control value. The readings from the duplicate wells at each compound concentration were averaged and, after the subtraction of the mean background from all values, were expressed as a percentage of the positive control signal. The quantifiable and specific reduction of expressed protein detected by the ELISA in the presence of a drug can be used as a measure of replicon inhibition. GraFit software (Erithacus Software Ltd.) was used to plot the curve of percentage inhibition against compound concentration and derive the 50% inhibitory concentration (IC50) for the compound.

[2] = system: HCV replication, genotype 1a (Huh-7 HCV replicon cell); test: Replicon ELISA cell based assay, genotype 1a; settings: Hepatitis C virus, Huh-7 HCV replicon cells, 72 hours, mean, assayed at least twice
Procedure: as §1, §2, §3, §4, §5

C[C@H]1CC[C@H](C(=O)N(CC2CC2)c2cc(-c3ccc(-c4cc5ncccn5n4)cc3)sc2C(=O)O)CC1 [Example 35, 3-{(Cyclopropylmethyl)[(trans-4-methylcyclohexyl)carbonyl]amino}-5-(4-pyrazolo[1,5-a]pyrimidin-2-ylphenyl)-2-thiophenecarboxylic acid]
IC50 [1]: 5 to 10 nM | IC50 [2]: 10 to 50 nM

CC(=O)c1ccc(-c2cc(N(C(=O)[C@H]3CC[C@H](C)CC3)C(C)C)c(C(=O)O)s2)cc1 [Compound E, 5-(4-Acetylphenyl)-3-[[(trans-4-methylcyclohexyl)carbonyl](1-methylethyl)amino]-2-thiophenecarboxylic acid, reference compound]
IC50 [1]: 1000 to 5000 nM | IC50 [2]: 1000 to 5000 nM

CC(C)N(c1cc(-c2ccc(-c3cc4ncccc4o3)cc2)sc1C(=O)O)C(=O)[C@H]1CC[C@H](C(F)(F)F)CC1 [Example 22, 5-(4-Furo[3,2-b]pyridin-2-ylphenyl)-3-((1-methylethyl){[trans-4-(trifluoromethyl)cyclohexyl]carbonyl}amino)-2-thiophenecarboxylic acid]
IC50 [1]: 50 to 100 nM | IC50 [2]: 50 to 100 nM

CC(C)N(c1cc(-c2ccc(-c3cc4nccc(N)n4n3)c(Cl)c2)sc1C(=O)O)C(=O)[C@H]1CC[C@H](C)CC1 [Example 33, 5-[4-(7-Aminopyrazolo[1,5-a]pyrimidin-2-yl)-3-chlorophenyl]-3-[[(trans-4-methylcyclohexyl)carbonyl](1-methylethyl)amino]-2-thiophenecarboxylic acid]
IC50 [1]: < 5 nM | IC50 [2]: < 5 nM

CC(C)N(c1cc(-c2ccc(-c3ccc(Cl)cc3)cc2)sc1C(=O)O)C(=O)[C@H]1CC[C@H](C)CC1 [Compound C, 5-(4′-Chloro-4-biphenylyl)-3-[[(trans-4-methylcyclohexyl)carbonyl](1-methylethyl)amino]-2-thiophenecarboxylic acid, reference compound]
IC50 [1]: > 5000 nM | IC50 [2]: 1000 to 5000 nM

CC(C)N(c1cc(-c2ccc(-c3cc4cccc(O)c4o3)cc2)sc1C(=O)O)C(=O)[C@H]1CC[C@H](C)CC1 [Example 19, 5-[4-(7-Hydroxy-1-benzofuran-2-yl)phenyl]-3-[[(trans-4-methylcyclohexyl)carbonyl](1-methylethyl)amino]-2-thiophenecarboxylic acid]
IC50 [1]: < 5 nM | IC50 [2]: < 5 nM

CCN(c1cc(-c2ccc(-c3cc4ncccn4n3)cc2)sc1C(=O)O)C(=O)[C@H]1CC[C@H](C)CC1 [Example 40, Ammonium 3-{ethyl[(trans-4-methylcyclohexyl)carbonyl]amino}-5-(4-pyrazolo[1,5-a]pyrimidin-2-ylphenyl)-2-thiophenecarboxylate]
IC50 [1]: 5 to 10 nM | IC50 [2]: 100 to 500 nM

CC(C)N(c1cc(-c2ccc(-c3cc4ncccc4o3)s2)sc1C(=O)O)C(=O)[C@H]1CC[C@H](C)CC1 [Example 43, 5′-Furo[3,2-b]pyridin-2-yl-4-[[(trans-4-methylcyclohexyl)carbonyl](1-methylethyl)amino]-2,2′-bithiophene-5-carboxylic acid]
IC50 [1]: 50 to 100 nM | IC50 [2]: 500 to 1000 nM

CC(C)N(c1cc(-c2ccc(-c3cc4ncccc4o3)cc2)sc1C(=O)O)C(=O)[C@H]1CC[C@H](C)CC1 [Example 1, 5-(4-Furo[3,2-b]pyridin-2-ylphenyl)-3-[[(trans-4-methylcyclohexyl)carbonyl](1-methylethyl)amino]-2-thiophenecarboxylic acid]
IC50 [1]: 10 to 50 nM | IC50 [2]: 10 to 50 nM

Cc1cc(N)n2nc(-c3ccc(-c4cc(N(C(=O)[C@H]5CC[C@H](C)CC5)C(C)C)c(C(=O)O)s4)cc3)cc2n1 [Example 5, 5-[4-(7-Amino-5-methylpyrazolo[1,5-a]pyrimidin-2-yl)phenyl]-3-[[(trans-4-methylcyclohexyl)carbonyl](1-methylethyl)amino]-2-thiophenecarboxylic acid]
IC50 [1]: < 5 nM | IC50 [2]: < 5 nM

CC(C)N(c1cc(-c2ccc(-c3cc4ncccc4o3)nc2)sc1C(=O)O)C(=O)[C@H]1CC[C@H](C)CC1 [Example 18, 5-(6-Furo[3,2-b]pyridin-2-yl-3-pyridinyl)-3-[[(trans-4-methylcyclohexyl)carbonyl](1-methylethyl)amino]-2-thiophenecarboxylic acid]
IC50 [1]: 10 to 50 nM | IC50 [2]: 50 to 100 nM

CC(C)N(C(=O)[C@H]1CC[C@H](C)C[C@H]1O)c1cc(-c2ccc(-c3cc4ncccn4n3)cc2)sc1C(=O)O [Example 39, 3-[{[(1S,2R,4S)-2-Hydroxy-4-methylcyclohexyl]carbonyl}(1-methylethyl)amino]-5-(4-pyrazolo[1,5-a]pyrimidin-2-ylphenyl)-2-thiophenecarboxylic acid]
IC50 [1]: 5 to 10 nM | IC50 [2]: 10 to 50 nM

CC(C)N(c1cc(-c2ccc(-c3cn4ccsc4n3)cc2)sc1C(=O)O)C(=O)[C@H]1CC[C@H](C)CC1 [Example 4, 5-(4-Imidazo[2,1-b][1,3]thiazol-6-ylphenyl)-3-[[(trans-4-methylcyclohexyl)carbonyl](1-methylethyl)amino]-2-thiophenecarboxylic acid]
IC50 [1]: 10 to 50 nM | IC50 [2]: 50 to 100 nM

CC(C)N(c1cc(-c2ccccc2)sc1C(=O)O)C(=O)[C@H]1CC[C@H](C)CC1 [Compound A, 5-Phenyl-3-[[(trans-4-methylcyclohexyl)carbonyl](1-methylethyl)amino]-2-thiophenecarboxylic acid, reference compound]
IC50 [1]: 100 to 500 nM | IC50 [2]: 1000 to 5000 nM

CC(C)N(c1cc(-c2coc(-c3nc4ccccc4o3)c2)sc1C(=O)O)C(=O)[C@H]1CC[C@H](C)CC1 [Example 31, 5-[5-(1,3-Benzoxazol-2-yl)-3-furanyl]-3-[[(trans-4-methylcyclohexyl)carbonyl](1-methylethyl)amino]-2-thiophenecarboxylic acid]
IC50 [1]: 100 to 500 nM | IC50 [2]: 100 to 500 nM

CC(C)N(c1cc(-c2ccc(-c3cc4cnccc4o3)cc2)sc1C(=O)O)C(=O)[C@H]1CC[C@H](C)CC1 [Example 13, Sodium 5-(4-furo[3,2-c]pyridin-2-ylphenyl)-3-[[(trans-4-methylcyclohexyl)carbonyl](1-methylethyl)amino]-2-thiophenecarboxylate]
IC50 [1]: 100 to 500 nM | IC50 [2]: 100 to 500 nM

CC(C)N(c1cc(-c2ccc(-c3nc4ncccc4o3)cc2)sc1C(=O)O)C(=O)[C@H]1CC[C@H](C)CC1 [Example 8, 3-[[(4-Methylcyclohexyl)carbonyl](1-methylethyl)amino]-5-(4-[1,3]oxazolo[4,5-b]pyridin-2-ylphenyl)-2-thiophenecarboxylic acid]
IC50 [1]: 10 to 50 nM | IC50 [2]: 10 to 50 nM

Cc1ccn2nc(-c3ccc(-c4cc(N(C(=O)[C@H]5CC[C@H](C)CC5)C(C)C)c(C(=O)O)s4)cc3)cc2n1 [Example 6, 3-[[(trans-4-Methylcyclohexyl)carbonyl](1-methylethyl)amino]-5[4-(5-methylpyrazolo[1,5-a]pyrimidin-2-yl)phenyl]-2-thiophenecarboxylic acid]
IC50 [1]: 10 to 50 nM | IC50 [2]: 50 to 100 nM

CC(C)N(c1cc(-c2ccc(C#N)cc2)sc1C(=O)O)C(=O)[C@H]1CC[C@H](C)CC1 [Compound D, 5-(4-Cyanophenyl)-3-[[(trans-4-methylcyclohexyl)carbonyl](1-methylethyl)amino]-2-thiophenecarboxylic acid, reference compound]
IC50 [1]: 1000 to 5000 nM | IC50 [2]: 1000 to 5000 nM
